# According to patent publication US7888319B2, “Compositions and methods for promoting wound healing and tissue regeneration” (MUSC Foundation for Research Development, priority 2004, dated 2011):
# Ends that are not written are not given here.
# How the values were obtained:
# [1] = system: 5 mm diameter excisional skin wounds; assay: Small (5 mm) excisional skin wounds in adult mice, ACT 1 to ACT 5; assay type: in vivo, mouse
# Method: Anesthetized adult mice had 2 small (5 mm diameter) excisional skin wounds made by fine surgical scissors on the neck and (upper) back. The boundaries of the injuries were demarcated by a 5 mm wide circular template cut in a plastic sheet. 50-60 μl of a solution of 20% pluronic gel containing either no (control) or one of the ACT peptides (ACT 2-SEQ ID NO: 1, ACT 1-SEQ ID NO:2, ACT 3-SEQ ID NO:3, ACT 4-SEQ ID NO:4, ACT 5-SEQ ID NO:5) dissolved at concentrations of 100 μM were then applied to the excisional injuries. Control or ACT peptide-containing gel was applied subsequently 24 hours after the initial application. No further applications of control and ACT peptide-containing gel were made after the second application. […] Note that the same wound on the same animal is shown at the different time points during the healing time course. Anesthetized adult mice had 2 small (5 mm diameter) excisional skin wounds made by fine surgical scissors on the neck and (upper) back. The boundaries of the injuries were demarcated by a 5 mm wide circular template cut in a plastic sheet. 50-60 μl of a solution of 30% pluronic gel containing either no (control) or one of the ACT peptides (ACT 2—SEQ ID NO:1, ACT 1—SEQ ID NO:2, ACT 3—SEQ ID NO:3, ACT 4—SEQ ID NO:4, ACT 5—SEQ ID NO:5) dissolved at concentrations of 100 μM were then applied to the excisional injuries. Control or ACT peptide-containing gels were applied subsequently 24 hours after the initial application. No further applications of control and ACT peptide-containing gel were made after the second application. […] Note that the same wound on the same animal is shown at the different time points during the healing time course. The area of open wound was measured during the time course using NIH image according to standard protocols on multiple (˜5 mice per control or treatment condition) adult mice. These individual area measurements were then normalized to (i.e., divided by) the average area measured for the control injuries for a given time point, multiplied by 100 to give a % of unclosed wound relative to the control and then plotted against time. A Mann-Whitney U-test was used to statistically assess the effects of ACT peptides over the time course. […] These treatments provided results with significant p values.
# [2] = system: 8 mm wide circular excisional skin injuries; assay: Large (8 mm) excisional skin injury in adult mice; assay type: in vivo, mouse
# Method: Anesthetized adult mice had 8 mm wide circular excisional skin injuries made by fine surgical scissors down to the underlying muscle in the dorsal mid line between the shoulder blades (i.e., as shown in (a) an (b). The boundary of the injury was demarcated by an 8 mm wide circular template cut in a plastic sheet. 100 μl of a solution of 30% pluronic gel containing either no (control) or dissolved ACT 1 peptide (SEQ ID NO:2) at a concentration of 100 μM was then applied to the excisional injuries. Control or ACT peptide containing gel was applied subsequently 24 hours after the initial application. No further applications of control and ACT peptide containing gel were made after the second application. […] Note that images of the same injury on the same animal are shown at the different time points during the healing time course. […] Skin biopsies of the entire wound site were taken from some of the mice 24 hours following the excisional injury in the experiment described in FIG. 6. Figures (a) and (b) show low magnification survey views of cross-sections from near the center of the wound of control and ACT peptide treated injuries respectively. The wound edge (marked by the small arrows), bounded by skin of normal histological appearance, can be seen in both cases. A black rectangle is placed over the images in (a) and (b) at the left hand wound edge. The histological structures within these two rectangles are shown at higher magnification in (c) and (d) for control and ACT peptide treated tissues, respectively. Of most interest is a “collar-like” tissue of aligned fibrous material (arrowed) projecting from basal parts of the injury to or toward the wound edge and exterior surface of injury. The aligned fibrous substrate has the appearance of being much more organized in the control injury (d) than in the ACT peptide treated injury (c). […] This is confirmed in (e) and (f) where regions of histological section within the black rectangles shown in (c) and (d) are respectively shown at higher magnification. The inflammatory cells studding the aligned fibrous substrate include mast cells, neutrophils and macrophages. These inflammatory cells occur at much higher density in the control injury than in the ACT peptide treated injury. […] At the end of the 14 day period in the experiment described in FIG. 6, skin biopsies of the entire excisional injury were taken and histological sections from these skin samples were H&E histochemically stained. Figures (a) and (b) show low magnification survey views of cross-sections from near the center of the injury of ACT peptide and control respectively. The wound edge (marked by the small arrows), bounded by skin of normal histological appearance, can be seen in both cases. A black rectangle is placed over the images in (a) and (b) near the center of each injury. The histological structures within these two rectangles are shown at higher magnification in (c) and (d) for the ACT peptide and control tissues respectively. It is evident that tissue within the ACT peptide treated injury locus has considerably more complexity. […] By comparison, re-epithelization of the injury surface is incomplete and there is no sign of regenerating hair follicles in the epithelium of the control injury (d). […] As with, the hair follicles this tissue complexity was regenerated by differentiation of stem cells. […]
sequence,measurement,setting,value
"RPRPDDLEI (not fully specified (N-terminus)) [ACT 1, carboxy-terminal 9 amino acids of human Cx43; amino terminus biotinylated in tests]","closure, inflammation, healing and scarring of injuries","[1]; 100 μM in pluronic gel, 50-60 μl, applied at 0 and 24 hours, 240 hour time course (10 days), vs gel without peptide","closed faster, were significantly less inflamed in appearance, healed faster and scarred less"
same,"size of improvement in wound closure over the control, compared among peptides","[1]; 100 μM, over the time course",most pronounced improvements over the control
same,wound closure rates (area of open wound as % of unclosed wound relative to the control),"[1]; 100 μM, ~5 mice per condition, Mann-Whitney U-test over the time course",significantly improved wound closure rates
same,"closure, inflammation, healing and scarring of injury","[2]; 100 μM in 30% pluronic gel, 100 μl, applied at 0 and 24 hours, 14 day time course, vs gel without peptide","closed faster, was less inflamed in appearance, healed faster and scarred less"
same,re-epithelization of the injured surface,"[2]; 100 μM, 14 days, H&E histology",re-epithelization of the injured surface is complete
same,regenerating hair follicles in the new epithelium,"[2]; 100 μM, 14 days, H&E histology",regenerating hair follicles can already be seen
same,restoration of tissue structural complexity beneath the reformed epithelium,"[2]; 100 μM, 14 days, H&E histology",considerable restoration of normal structural complexity
same,density of inflammatory cells studding the fibrous substrate at the wound edge,"[2]; 100 μM, skin biopsy 24 hours after injury, H&E histology",considerably lower density of inflammatory cells
